# In paper PMC7615677 (Science translational medicine, 2023):
# Where two headings read alike, the source gives them in different places.
# How the values were obtained:
# In vivo pharmacokinetics = assay: In vivo pharmacokinetics; design: species or system female golden Syrian hamsters; conditions: for AUC(0-t): read-out: AUC0-24 (first dose); for AUC: read-out: AUC96-120 (last dose)
# Experimental: Additional PK studies were also conducted by WuXi AppTec Co, Ltd (Shanghai, China) according to protocols reviewed and approved by DNDi. […] IV and oral formulations for rats, mice and hamsters were the same as described above. For dogs, the IV dose was administered in saline containing 2% DMSO and 3% Solutol HS-15 and the oral formulation was as described above. Blood was sampled up to 48 h post-dose into vials containing potassium EDTA as an anticoagulant, proteins were precipitated with acetonitrile and plasma was separated and assayed by LC-MS.
# Single dose pharmacokinetic parameters (clearance, volume of distribution and half-life) were initially estimated using non-compartmental methods and oral bioavailability was calculated using the ratio of the dose corrected AUC after oral dosing relative to that after IV administration. […] Where a full concentration versus time profile was obtained from a single animal, parameters were estimated for each animal and mean and standard deviations calculated. In the case of mice where sparse sampling was used with multiple animals per time point, the data analysis was conducted using the mean profile.
# [1] = Compartmental PK modelling and repeat-dose simulation; design: species or system mice; conditions: for AUC: read-out: AUC24 ss
# Experimental: To support pharmacokinetic/pharmacodynamic (PKPD) analysis, data in mice and hamsters were also analyzed by compartmental modeling using Phoenix WinNonlin (version 8.2; Certara, Princeton, NJ). For each dose level, an extravascular dosing, single compartment disposition model was fit to the combined Day 1/Day 5 repeat dose plasma data. The model was parameterized with a single volume term (V/F), and with first order absorption (K01) and elimination (K10) rate constants. Initial values for the parameter estimates were obtained by fitting of the model to the Day 1 data at the lowest dose level only, and the same initial values were used across the dose range. Experimental data used in model fitting were the mean concentration-time profiles and the average dose administered to each group. The weighting scheme (1/Y2 for mouse and 1/Y for hamster) was selected based on goodness of fit of the peak region of the experimental profiles. Parameter estimates obtained through fitting were used to simulate full repeat-dose plasma concentration-time profiles with both once-daily and twice-daily (dosing at […]) administration at each dose level and treatment duration used in the efficacy studies.
# [2] = Reaction phenotyping with chemical CYP inhibitors; format: in vitro ADME; conditions: human liver microsomes
# Experimental: Other aspects of the incubation and analysis were as described above.
# [3] = target: complex III of L. donovani (Leishmania donovani, UniProt A5HU08); assay: Complex III assay in mitochondria-enriched cell lysates
# Experimental: Measurement of complex III activity and inhibition were performed as described previously ([6]).
# [4] = female, golden Syrian, hamster, plasma, hamsters, oral 12.5 mg/kg qd, 5 days
# [5] = female, golden Syrian, hamster, plasma, hamsters, oral 25 mg/kg qd, 5 days
# [6] = mice, 3.125 mg/kg bid, 10 days, simulated
# [7] = mice, 12.5 mg/kg bid, 5 days, simulated
# [8] = mice, 12.5 mg/kg qd, 5 days, simulated
# [9] = mice, 25 mg/kg bid, 5 days, simulated
# [10] = mice, 25 mg/kg qd, 5 days, simulated
# [11] = mouse, plasma, po, 3.125 mg/kg, mice, 3.125 mg/kg bid, 10 days, simulated
# [12] = mouse, plasma, po, 12.5 mg/kg, mice, 12.5 mg/kg bid, 5 days, simulated
# [13] = mouse, plasma, po, 12.5 mg/kg, mice, 12.5 mg/kg qd, 5 days, simulated
# [14] = mouse, plasma, po, 25 mg/kg, mice, 25 mg/kg qd, 5 days, simulated
# [15] = mouse, plasma, po, Mice, 3.6 mg/kg, fitted
# [16] = mouse, plasma, po, Mice, 7.1 mg/kg, fitted
# [17] = mouse, plasma, po, Mice, 12.7 mg/kg, fitted
# [18] = mouse, plasma, po, Mice, 25 mg/kg, fitted
# Sequence of complex III of L. donovani (A5HU08 1-290): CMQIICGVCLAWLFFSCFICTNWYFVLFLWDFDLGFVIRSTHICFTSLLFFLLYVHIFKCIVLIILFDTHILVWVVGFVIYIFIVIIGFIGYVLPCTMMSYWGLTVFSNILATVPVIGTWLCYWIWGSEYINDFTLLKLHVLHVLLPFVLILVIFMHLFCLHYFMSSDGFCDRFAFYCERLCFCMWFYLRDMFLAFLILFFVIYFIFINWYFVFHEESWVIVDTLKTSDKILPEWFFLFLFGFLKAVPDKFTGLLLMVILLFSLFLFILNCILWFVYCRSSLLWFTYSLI
# Sequence of complex III of L. donovani (A0A3S7WPP0 1-258 partner): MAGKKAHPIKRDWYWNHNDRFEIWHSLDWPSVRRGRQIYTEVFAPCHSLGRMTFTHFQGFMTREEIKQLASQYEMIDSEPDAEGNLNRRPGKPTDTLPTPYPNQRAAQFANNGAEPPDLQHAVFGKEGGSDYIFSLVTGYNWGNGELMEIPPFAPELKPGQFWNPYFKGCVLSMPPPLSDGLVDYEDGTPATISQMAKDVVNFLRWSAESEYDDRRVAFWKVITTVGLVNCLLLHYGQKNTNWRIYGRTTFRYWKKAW
smiles,measurement,setting,value
Cc1[nH]c2nc(N)nc(C)c2c1-c1ccc(C#N)c2c1OCO2 [DNDI-6174],Cmax at 5 days,In vivo pharmacokinetics; [4],3530 ng/mL
same,AUC(0-t),In vivo pharmacokinetics; [4],22900 ng·h/mL
same,AUC,In vivo pharmacokinetics; [4],30200 ng·h/mL
same,Cmax at 5 days,In vivo pharmacokinetics; [5],7790 ng/mL
same,AUC(0-t),In vivo pharmacokinetics; [5],44200 ng·h/mL
same,AUC,In vivo pharmacokinetics; [5],77400 ng·h/mL
same,Cmax,"In vivo pharmacokinetics; female, golden Syrian, hamster, plasma, hamsters, oral 25 mg/kg qd, 5 days, read-out: Cmax (Day 1)",4560 ng/mL
same,AUC(0-t),"In vivo pharmacokinetics; female, golden Syrian, hamster, plasma, hamsters, oral 50 mg/kg, single dose on day 1 only",145000 ng·h/mL
same,Cmax,"In vivo pharmacokinetics; female, golden Syrian, hamster, plasma, hamsters, oral 50 mg/kg, single dose on day 1 only, read-out: Cmax (Day 1)",13200 ng/mL
same,Tmax,"In vivo pharmacokinetics; female, golden Syrian, plasma, Hamster, oral 12.5 mg/kg",2.7 h
same,half-life,"In vivo pharmacokinetics; female, golden Syrian, plasma, Hamster, oral 12.5 mg/kg, read-out: Apparent t1/2 (converted)",2.6 h
same,Cmax,"In vivo pharmacokinetics; female, golden Syrian, plasma, Hamster, oral 12.5 mg/kg, read-out: Cmax",2870 ng/mL
same,AUC(0-inf),"In vivo pharmacokinetics; female, golden Syrian, plasma, Hamster, oral 12.5 mg/kg, read-out: Plasma AUC0-∞",21200 ng·h/mL
same,Cmax (Day 1),"In vivo pharmacokinetics; hamsters, oral 12.5 mg/kg qd, 5 days",2870 ng/mL
same,K01,"[1]; Mice, 3.6 mg/kg, fitted",1.04 h⁻¹
same,K10,"[1]; Mice, 3.6 mg/kg, fitted",0.270 h⁻¹
same,V/F,"[1]; Mice, 3.6 mg/kg, fitted",2.76 L/kg
same,K01,"[1]; Mice, 7.1 mg/kg, fitted",0.833 h⁻¹
same,K10,"[1]; Mice, 7.1 mg/kg, fitted",0.246 h⁻¹
same,V/F,"[1]; Mice, 7.1 mg/kg, fitted",1.95 L/kg
same,K01,"[1]; Mice, 12.7 mg/kg, fitted",0.634 h⁻¹
same,K10,"[1]; Mice, 12.7 mg/kg, fitted",0.213 h⁻¹
same,V/F,"[1]; Mice, 12.7 mg/kg, fitted",1.43 L/kg
same,K01,"[1]; Mice, 25 mg/kg, fitted",3.00 h⁻¹
same,K10,"[1]; Mice, 25 mg/kg, fitted",0.158 h⁻¹
same,V/F,"[1]; Mice, 25 mg/kg, fitted",2.40 L/kg
same,AUC24 ss (unbound),[1]; [6],1010 ng·h/mL
same,Cav ss,[1]; [6],351 ng/mL
same,Cav ss (unbound),[1]; [6],42 ng/mL
same,Cmax (unbound),[1]; [6],98 ng/mL
same,Cmin,[1]; [6],23 ng/mL
same,Cmin (unbound),[1]; [6],3 ng/mL
same,Cum AUC (unbound),[1]; [6],10100 ng·h/mL
same,AUC24 ss,[1]; [7],82000 ng·h/mL
same,AUC24 ss (unbound),[1]; [7],9840 ng·h/mL
same,Cav ss,[1]; [7],3420 ng/mL
same,Cav ss (unbound),[1]; [7],410 ng/mL
same,Cmax (unbound),[1]; [7],780 ng/mL
same,Cmin,[1]; [7],520 ng/mL
same,Cmin (unbound),[1]; [7],62 ng/mL
same,Cum AUC,[1]; [7],410000 ng·h/mL
same,Cum AUC (unbound),[1]; [7],49200 ng·h/mL
same,AUC24 ss (unbound),[1]; [8],4920 ng·h/mL
same,Cav ss,[1]; [8],1710 ng/mL
same,Cav ss (unbound),[1]; [8],205 ng/mL
same,Cmax (unbound),[1]; [8],608 ng/mL
same,Cmin,[1]; [8],80 ng/mL
same,Cmin (unbound),[1]; [8],10 ng/mL
same,Cum AUC (unbound),[1]; [8],24600 ng·h/mL
same,AUC24 ss (unbound),[1]; [9],15800 ng·h/mL
same,Cav ss,[1]; [9],5470 ng/mL
same,Cav ss (unbound),[1]; [9],657 ng/mL
same,Cmax,[1]; [9],11700 ng/mL
same,Cmax (unbound),[1]; [9],1410 ng/mL
same,Cmin,[1]; [9],1140 ng/mL
same,Cmin (unbound),[1]; [9],137 ng/mL
same,Cum AUC,[1]; [9],657000 ng·h/mL
same,Cum AUC (unbound),[1]; [9],78800 ng·h/mL
same,AUC24 ss (unbound),[1]; [10],7880 ng·h/mL
same,Cav ss,[1]; [10],2740 ng/mL
same,Cav ss (unbound),[1]; [10],328 ng/mL
same,Cmax (unbound),[1]; [10],1080 ng/mL
same,Cmin,[1]; [10],251 ng/mL
same,Cmin (unbound),[1]; [10],30 ng/mL
same,Cum AUC (unbound),[1]; [10],39400 ng·h/mL
same,Cmax at 10 days,[1]; [11],820 ng/mL
same,AUC,[1]; [11],8410 ng·h/mL
same,AUC at 10 days,"[1]; mouse, plasma, po, 3.125 mg/kg, mice, 3.125 mg/kg bid, 10 days, simulated, read-out: Cum AUC",84100 ng·h/mL
same,Cmax,"[1]; mouse, plasma, po, 3.6 mg/kg, Mice, 3.6 mg/kg, fitted, read-out: Cmax",813 ng/mL
same,Cmax,"[1]; mouse, plasma, po, 7.1 mg/kg, Mice, 7.1 mg/kg, fitted, read-out: Cmax",2190 ng/mL
same,Cmax at 5 days,[1]; [12],6500 ng/mL
same,AUC,[1]; [12],82000 ng·h/mL
same,AUC at 5 days,"[1]; mouse, plasma, po, 12.5 mg/kg, mice, 12.5 mg/kg bid, 5 days, simulated, read-out: Cum AUC",410000 ng·h/mL
same,Cmax at 5 days,[1]; [13],5070 ng/mL
same,AUC,[1]; [13],41000 ng·h/mL
same,AUC at 5 days,"[1]; mouse, plasma, po, 12.5 mg/kg, mice, 12.5 mg/kg qd, 5 days, simulated, read-out: Cum AUC",205000 ng·h/mL
same,Cmax,"[1]; mouse, plasma, po, 12.7 mg/kg, Mice, 12.7 mg/kg, fitted, read-out: Cmax",5100 ng/mL
same,Cmax,"[1]; mouse, plasma, po, 25 mg/kg, Mice, 25 mg/kg, fitted, read-out: Cmax",8830 ng/mL
same,Cmax at 5 days,"[1]; mouse, plasma, po, 25 mg/kg, mice, 25 mg/kg bid, 5 days, simulated",11700 ng/mL
same,AUC at 5 days,"[1]; mouse, plasma, po, 25 mg/kg, mice, 25 mg/kg bid, 5 days, simulated, read-out: Cum AUC",657000 ng·h/mL
same,Cmax at 5 days,[1]; [14],9030 ng/mL
same,AUC,[1]; [14],65700 ng·h/mL
same,AUC at 5 days,"[1]; mouse, plasma, po, 25 mg/kg, mice, 25 mg/kg qd, 5 days, simulated, read-out: Cum AUC",328000 ng·h/mL
same,AUC(0-inf),[1]; [15],4840 ng·h/mL
same,CL/F,[1]; [15],12.4 mL/min/kg
same,AUC(0-inf),[1]; [16],14800 ng·h/mL
same,CL/F,[1]; [16],7.98 mL/min/kg
same,AUC(0-inf),[1]; [17],41700 ng·h/mL
same,CL/F,[1]; [17],5.08 mL/min/kg
same,AUC(0-inf),[1]; [18],65700 ng·h/mL
same,CL/F,[1]; [18],6.35 mL/min/kg
same,"CLint in absence or presence of CYP isoform inhibitors, in words",[2],no significant difference in the CLint values in the absence or presence of inhibitors
same,IC50,[3]; lysates from axenic amastigote stage,2 ± 0.5 nM
same,IC50,[3]; lysates from promastigote stage,8 ± 1.7 nM
